Columns and labels:
[1] = tested on: ammonia volatilization from soil; test: Soil column culture: effects of 1,9-decanediol on ammonia volatilization from soil (Test Example 1); settings: paddy soil column, 21 days
Method: 1.1 test soil: the test soil type is paddy soil, and the texture is sandy loam. It is collected from 0~20 centimeters (cm) topsoil of the experimental field in Yingtan City, Jiangxi Province (28°15′N, 116°55′E), sieved with a 2 millimeters (mm) sieve, and mixed evenly. See Table 1 for basic physical and chemical properties.
1.3 experimental treatment: urea treatment (U) and 1,9-decanediol + urea treatment are set in experiments. Among them, 1, 9-decanediol is added in soil at four levels of 100 mg/kg, 200 mg/kg, 500 mg/kg, and 1000 mg/kg, numbered as: 1, 9-D-100, 1, 9-D-200, 1, 9-D-500, and 1, 9-D-1000 respectively. Each treatment is repeated three times. The nitrogen application rate is 200 mg nitrogen per kilogram soil.
A soil column culture method is used for the test (FIG. 1). The soil column is 18 centimeters (cm) in height and 5 cm in inner diameter, which is divided into a leak-proof layer, a soil-fertilizer mixed layer, a flooded layer, and an idle layer (also referred to as spare layer). […] The mixed solution is evenly applied to the soil-fertilizer mixture layer of the soil column, the water is added to maintain a flooded state, and the ammonia volatilization from soil is monitored for 21 consecutive days.

[2] = tested on: ammonia volatilization from soil; test: Soil column culture: effects of different inhibitors on ammonia volatilization from soil (Test Example 2); settings: 21 days; for inhibition of ammonia volatilization from soil compared with the urea treatment (U): 200 mg N per kg soil; for order of inhibition effects of ammonia volatilization, from high to low: suffix -100 / -500 = addition in soil in mg/kg, with urea
Description: A soil column culture method is used for the test (FIG. 1). The soil column is 18 centimeters (cm) in height and 5 cm in inner diameter, which is divided into a leak-proof layer, a soil-fertilizer mixed layer, a flooded layer, and an idle layer (also referred to as spare layer). A leak-proof pad and 1 cm thick quartz sand are placed in the leak-proof layer at a bottom of the soil column firstly to prevent soil leakage and simulate a real situation in the field, and then the experimental soil is added to the soil-fertilizer mixed layer, and after compaction, a bottom leaching switch is turned on and water is added to restore the soil activity. After one night of soil recovery activity, the bottom leaching switch is turned off, and the urea required for each treatment is mixed with 1,9-decanediol to prepare a mixed solution. The mixed solution is evenly applied to the soil-fertilizer mixture layer of the soil column, the water is added to maintain a flooded state, and the ammonia volatilization from soil is monitored for 21 consecutive days.
2.1 Test Soil: The Same as Test Example 1
2.2 test reagent: 1, 9-decanediol, the same as test example 1, dicyandiamide (DCD, C2H4N4), linolenic acid (LN, […]) and methyl 3-(4-hydroxyphenyl)propionate (MHPP, C10H12O3) are purchased from Sigma.
2.3 experimental treatments: urea treatment (U), DCD + urea treatment, LN + urea treatment, MHPP + urea treatment, and 1,9-decanediol + urea treatment are set in experiments, in which an addition of DCD in soil is 20 mg/kg, and additions of LN, MHPP and 1,9-decanediol in soil each includes 100 mg/kg and 500 mg/kg, numbered as: DCD, LN-100, LN-500, MHPP-100, MHPP-500, 1,9-D-100, and 1,9-D-500. Each treatment is repeated three times. The nitrogen application rate is 200 mg nitrogen per kilogram soil.
2.4 Experimental Steps: The Same as the Test Example 1

nitrification process = settings: at low concentration; cited from earlier work
[3] = paddy soil column, additions 100 and 500 mg/kg with urea

CC(O)CCCCCCCCO (centres unmarked) [1,9-decanediol]
dose dependence of the inhibition effect of ammonia volatilization ([1]; 100 to 1000 mg/kg in soil with urea): more obvious with the increase of the dosage | total amount of ammonia volatilization from soil compared with the treatment (U) without 1,9-decanediol ([1]; flooded, 100, 200, 500, 1000 mg/kg in soil with urea, 200 mg N per kg soil): significantly reduce the total amount of ammonia volatilization from soil | ammonia volatilization from soil compared with LN and MHPP treatments [2, 3]: significantly lower than that from soil treated with LN and MHPP | inhibition of ammonia volatilization from soil compared with the urea treatment (U) [2, 3]: can inhibit ammonia volatilization from soil | order of inhibition effects of ammonia volatilization, from high to low [2]: 1,9-D-500 > LN-500 > 1,9-D-100 >MHPP-500 > LN-100 > MHPP-100 | inhibition of the nitrification process (nitrification process): can inhibit the nitrification process at low concentration

COC(=O)CCc1ccc(O)cc1 [MHPP, methyl 3-(4-hydroxyphenyl)propionate, reference compound]
inhibition of ammonia volatilization from soil compared with the urea treatment (U) [2, 3]: can inhibit ammonia volatilization from soil | order of inhibition effects of ammonia volatilization, from high to low [2]: 1,9-D-500 > LN-500 > 1,9-D-100 >MHPP-500 > LN-100 > MHPP-100
